In US20260227379A1, “DEVICES AND METHODS FOR CLOT BURST PRESSURE MEASUREMENT” (THE BOARD OF REGENTS OF THE UNIVERSITY OF TEXAS SYSTEM, priority 2023, published 2026):

Columns and labels:
whole blood (WB) clot [1] = assay: Clot burst pressure (CBP) assay on conditioned whole blood; format: cell-based; settings: for CBP normalized to individual donor baseline (times as strong): recalcified 6 mM CaCl2, 37 C 30 min
Experimental: An exemplary embodiment of the present disclosure was used to obtain test data as follows. Blood from donors (n=7) was collected into 3.2% sodium citrate tubes. Blood was divided and treated to achieve the following conditions for a hypocoagulable state: 0.10, 0.15, and 0.20 USP heparin/mL blood; for a hypercoagulable state, blood was treated with a 1.0 or 2.0 g/L addition of fibrinogen. 2 mm holes were drilled into 6-well polystyrene plates and packing tape was used to cover the bottom. Blood was recalcified with CaCl2 and pipetted into the holes. The plates were incubated at 37 C for 30 minutes to allow for thrombus formation. Tape was removed after incubation. A pressure cap was designed with an inlet for fluid from a syringe pump and an outlet for outflow and was secured in the wells with a watertight seal. Outflow led to a vertical graduated measurement column where pressure was converted from cmH2O to mmHg for data analysis.
The device comprises four primary components as shown in FIG. 1: a syringe pump, a pressure cap, a 6-well plate assembly, and a water column. A Programmable Syringe Pump was programmed to pump a 100 cc syringe at 1 mL/s at a continuous rate. The syringe pump is coupled to a pressure cap assembly.
The pressure cap assembly shown in FIGS. 2 and 3 directs fluid flow directly over a clot and prevents pressure loss to the environment. The cap has two female ports allowing for an inlet connection from the syringe pump and an outlet connecting to the water column. The cap has three legs to avoid direct contact with a clot. An O-Ring (Dash 242) fits in the groove found around the pressure cap ensuring a snug fit in a standard 6-well plate. As fluid enters the pressure cap, it is directed into a compartment where a formed clot is suspended. Backflow fluid rises up a 150 cm water column created from clear PVC pipe marked at 5 cm intervals. All connections used Luer locks and barbed connections to prevent fluid loss.
A 20″×20″ HDPE board was used as the base of the device, which contained the 6-well plate assembly and water column. 4, 2″ screws were used to elevate the 6-well plate assembly to allow for easy visual inspection after trial runs. A single 5/64″ hole was drilled into the centers of each well in a 6-well plate. 220-grit sandpaper was used in a circular manner on the inner surface of the well-plate to provide a sheared surface for platelet adhesion. Clear packing tape was used to cover the holes on the bottom of the plate prior to the start of the assay.
Venipuncture whole blood (WB) was collected from donors (male and female) who were at least 18 years of age and had not taken anticoagulant medication in the past 14 days. Blood was drawn from the antecubital fossa using a 19G needle into a standard blue top 3.2% sodium citrate vacutainer tube. Tubes were placed on a rocker at room temperature prior to use in the assay, but all assay runs were initiated within 30 minutes of blood draw.
WB was conditioned to mimic hyper and hypocoagulable states. RiaSTAP a lyophilized fibrinogen concentrate, was used to generate a hypercoagulable condition. WB was conditioned with a 1.0 mg/mL or 2.0 mg/mL bolus of fibrinogen. Heparin sodium salt (Sigma-Aldrich, OH) was reconstituted and added to WB at 0.10, 0.15, 0.20 USP/mL amounts to generate a hypocoagulable state. 6 mM of CaCl2) was added to each conditioned blood group and a control group to recalcify and promote coagulation.
35 μL of conditioned or control WB was placed in the 5/64″ hole above the packing tape in each well of the 6-well plates. The entire plate was incubated at 37 C for 30 min with the plate lid on. After 30 min, the plate was removed from the incubator and the packing tape on the bottom was removed. The pressure cap was placed in a single well in a spiral manner and an air-tight seal was created with the O-Ring. One port of the pressure cap was connected to the syringe pump and the other port to the vertical water column. […]

whole blood (WB) clot [2] = assay: as above; format: cell-based
[3] = Whole Blood w/ Heparin 0.10 USP/mL
[4] = Whole Blood w/ Heparin 0.15 USP/mL
[5] = Whole Blood w/ Heparin 0.20 USP/mL

For Heparin sodium salt, which “Clot Integrity” value (whole blood (WB) clot [1]; [3]) is on record?
Its value is “Weakened Clot”.

And the “Difference Between All Groups in CBP” value (whole blood (WB) clot [1]; [3])?
Its value is “Yes”.

And the “Clot Integrity” value (whole blood (WB) clot [1]; [4])?
Its value is “Weakened Clot”.

What about the “Difference Between All Groups in CBP” value (whole blood (WB) clot [1]; [4]) of the same substance?
The value was “Yes”.

What about the “Clot Integrity” value (whole blood (WB) clot [1]; [5]) of the same substance?
The value was “Weakened Clot”.

What about the “Difference Between All Groups in CBP” value (whole blood (WB) clot [1]; [5]) of the same substance?
The value was “Yes”.

And the “Dose dependence of clot strength (CBP)” value (whole blood (WB) clot [1]; between the 0.10 and 0.20 USP heparin/mL group, whole blood)?
Its value is “dose-dependent weakness”.

What about the Clot formation (whole blood (WB) clot [1]; heparin 0.20-0.10 USP/mL range in whole blood) of the same substance?
The Clot formation was “weaker, but stable clot”.

What about the “CBP normalized to individual donor baseline (times as strong)” value (“CBP normalized” for short) (whole blood (WB) clot [1]; whole blood + 0.10 USP heparin/mL) of the same substance?
Its value is 0.54±0.19.

What about the “CBP normalized” value (whole blood (WB) clot [1]; whole blood + 0.15 USP heparin/mL) of the same substance?
Its value is 0.41±0.17.

What about the “CBP normalized” value (whole blood (WB) clot [1]; whole blood + 0.20 USP heparin/mL) of the same substance?
Its value is 0.25±0.02.

And the “Clot Integrity” value (whole blood (WB) clot [2]; Whole Blood w/ Heparin 0.25 USP/mL)?
Its value is “Porous Clot”.

What about the “Clot Integrity” value (whole blood (WB) clot [2]; Whole Blood w/ Heparin 0.35 USP/mL, listed as heparin, sodium salt) of the same substance?
Its value is “completely inhibits clot production”.

What about the “Clot Integrity” value (whole blood (WB) clot [2]; Whole Blood w/ Heparin 0.35 USP/mL, sodium salt) of the same substance?
Its value is “No Clot Formation”.
